Here are results for two compounds from US20200246284A1 (Academia Sinica, priority 2015, published 2020).

“And” between values parts separate entries of the source, which are not always exact repeats. Equal values may be shown once. Read-outs that look alike come from different tables or passages of the source.

As usually defined, the IC50 is the midpoint of a concentration-inhibition curve. One may read the AUC as the area under the concentration-time curve, a measure of exposure. Read a high AUC as high exposure. The term Cmax denotes the peak of the concentration-time curve. One may read the clearance as a measure of how efficiently the substance is removed, as volume per time. Read a high clearance as a high capacity for elimination. In general, half-life refers to how long it takes for the measured level to halve. Usually Papp B→A stands for how fast a substance crosses the layer from the basolateral side.

The test system of data set [1] is BMEC-hTert BM endothelium. It counts as cell-based, human.
The next data set relates to H678. Briefly: Cytotoxicity SCLC 72 hr alamar blue. It counts as cell-based, human.
The next data set concerns PC9. It is filed as cell-based, human.
The subject of the next data set is BMMSC BM mesenchyme. Briefly: Cytotoxicity normal tissue 72 hr. It counts as cell-based, human.
A further data set has as its system HS578 breast epithelium. Briefly: Cytotoxicity normal tissue 72 hr. It is filed as cell-based, human.
The test system of another data set is H1975. It is filed as cell-based, human.
In another data set the test system is HL-1 cardiomyocyte. Briefly: Cytotoxicity normal tissue 72 hr. It counts as cell-based. The settings on record: HL-1, 72 hr.
A further data set relates to MS-5 adult BM stroma. The data set can be described thus: Cytotoxicity normal tissue 72 hr. It counts as cell-based, mouse.
For a further data set, the system named is H128. The data set can be described thus: Cytotoxicity SCLC 72 hr alamar blue. It counts as cell-based, human.
The test system of data set [2] is HUVEC umbilical endothelium. The data set can be described thus: Cytotoxicity normal tissue 72 hr. It counts as cell-based, human.
For another data set, the system named is H82. The data set can be described thus: Cytotoxicity SCLC 72 hr alamar blue. It is filed as cell-based, human. For orientation: The colour change of resazurin is a common sign of viable cells or microbes.
Data set [3] concerns BCI-NSI hTERT bronchial epithelium. Briefly: Cytotoxicity normal tissue 72 hr. It counts as cell-based, human. To be noted: read-out: IC50.
Another data set deals with H841. Briefly: Cytotoxicity SCLC 72 hr alamar blue. It counts as cell-based, human.
Another data set concerns H524. Briefly: Cytotoxicity SCLC 72 hr alamar blue. It is filed as cell-based, human.
Data set [4] deals with 16HBE SV40+ bronchial epithelium. It is filed as cell-based, human.
In a further data set the test system is H358. It counts as cell-based, human.
In the next data set the test system is H3122. It counts as cell-based, human.
In the next data set the test system is CV1 renal fibroblasts. Briefly: Cytotoxicity normal tissue 72 hr. It counts as cell-based, African green monkey (Cercopithecus aethiops).
A further data set concerns H69. Briefly: Cytotoxicity SCLC 72 hr alamar blue. It counts as cell-based, human.
Another data set addresses P-glycoprotein (P-gp) (Homo sapiens, UniProt P08183). Briefly: P-gp mediated efflux in Caco-2 monolayers.
The subject of the next data set is SET2. Briefly: Cytotoxicity leukemia. The settings on record: Homo sapiens, SET-2; SET2 JAK2-V617 mut. It is filed as cell-based.
The next data set deals with AML cell lines. Briefly: Cytotoxicity, panel of AML cell lines. It is filed as cell-based, human. The text has this:
Human cord blood CD34+ cells transduced with MLL-AF9 gene: MA-10, MA-18. Human bone marrow CD34+ cells transduced with MLL-AF9 gene: MA-23. Human cord blood CD34+ cells transduced with MLL-AF9 and N-ras genes: MA-9.3, MA-9.6. • b) Growth factor independent leukemic cell lines. Human MA-10 cells transduced with Flt3 ITD (W51) were adapted to in vitro proliferation without growth factors (Moore Laboratory).

For data set [5], the system named is AML-2 CD34+ cells in NSG mice. Briefly: Primary MLL-AF9+ pediatric AML (AML-2) xenograft. It counts as in vivo, mouse. The settings on record: 30 mg/kg Q10D2x from day 7.
A short description of another data set: Microsome stability. To be noted: rat, microsomes.
In another data set the test system is U2932. To be noted: human.
A further data set deals with SMS-CTR rhabdomyosarcoma. The data set can be described thus: Cytotoxicity sarcoma. It counts as cell-based. The settings on record: Homo sapiens; SMS-CTR embryonal type.
Data set [6] in a line: Pharmacokinetics, IV bolus 10 mg/kg. It counts as in vivo, Sprague-Dawley rats. The settings on record: rat. The procedure: Serial blood samples were collected from the jugular vein at 0, 5, 10, 15, 30, 45, 60, 90, 120, 150, 180, 240, 300, 360 min after dosing. […] All pharmacokinetic analysis was carried out using the WinNonlin Standard Edition Version 1.0 (Scientific Consulting Inc., Apex, NC, USA).

The next data set is described as follows: Caco-2 permeability. It counts as in vitro ADME, human. To be noted: human, Caco-2, 10 μM. The text has this: (§1) The Caco-2 permeability assay is considered to be the industry gold standard for in vitro prediction of in vivo human intestinal permeability and bioavailability of orally administered drugs. The Caco-2 permeability assay uses an established method for predicting the absorption of therapeutic compounds across the GIT by measuring the rate of transport across a contiguous Caco-2 cell monolayer. […] The Caco-2 assay measures the passage of a test compound from a donor chamber into an acceptor chamber through a porous membrane on which a confluent Caco-2 monolayer forms a cellular barrier.
On the technique in general: Caco-2 cells form a polarised layer with tight junctions and transporters.

Another data set concerns Caco-2 cell monolayers. Briefly: Caco-2 permeability. It counts as in vitro ADME, human.
Source text: as §1

For another data set, the system named is Toledo. The settings on record: human.
In another data set the test system is CB CD34+ cells (+FCS). Briefly: Cytotoxicity normal tissue. It counts as cell-based, human.
For a further data set, the system named is JEKO-1. To be noted: human.
The test system of another data set is MA-10-W51. Briefly: Cytotoxicity leukemia. It counts as cell-based, human. The settings on record: growth factor dependent MA-10-W51. From the text: Human cord blood CD34+ cells transduced with MLL-AF9 gene: MA-10, MA-18. Human bone marrow CD34+ cells transduced with MLL-AF9 gene: MA-23. Human cord blood CD34+ cells transduced with MLL-AF9 and N-ras genes: MA-9.3, […] ).

A further data set concerns NECB1. Briefly: Combination with BO-1055, MCL (Tables 28, 29). It is filed as cell-based, human. The settings on record: read-out: IC50 single drug.
Where [7] appears, read: male, Sprague-Dawley, plasma, IV 10 mg/kg, n=5.
Setting [8] is: male, Sprague-Dawley, plasma, iv, 10 mg/kg, n=5.

Chain of P-glycoprotein (P-gp) (P08183 whole entry): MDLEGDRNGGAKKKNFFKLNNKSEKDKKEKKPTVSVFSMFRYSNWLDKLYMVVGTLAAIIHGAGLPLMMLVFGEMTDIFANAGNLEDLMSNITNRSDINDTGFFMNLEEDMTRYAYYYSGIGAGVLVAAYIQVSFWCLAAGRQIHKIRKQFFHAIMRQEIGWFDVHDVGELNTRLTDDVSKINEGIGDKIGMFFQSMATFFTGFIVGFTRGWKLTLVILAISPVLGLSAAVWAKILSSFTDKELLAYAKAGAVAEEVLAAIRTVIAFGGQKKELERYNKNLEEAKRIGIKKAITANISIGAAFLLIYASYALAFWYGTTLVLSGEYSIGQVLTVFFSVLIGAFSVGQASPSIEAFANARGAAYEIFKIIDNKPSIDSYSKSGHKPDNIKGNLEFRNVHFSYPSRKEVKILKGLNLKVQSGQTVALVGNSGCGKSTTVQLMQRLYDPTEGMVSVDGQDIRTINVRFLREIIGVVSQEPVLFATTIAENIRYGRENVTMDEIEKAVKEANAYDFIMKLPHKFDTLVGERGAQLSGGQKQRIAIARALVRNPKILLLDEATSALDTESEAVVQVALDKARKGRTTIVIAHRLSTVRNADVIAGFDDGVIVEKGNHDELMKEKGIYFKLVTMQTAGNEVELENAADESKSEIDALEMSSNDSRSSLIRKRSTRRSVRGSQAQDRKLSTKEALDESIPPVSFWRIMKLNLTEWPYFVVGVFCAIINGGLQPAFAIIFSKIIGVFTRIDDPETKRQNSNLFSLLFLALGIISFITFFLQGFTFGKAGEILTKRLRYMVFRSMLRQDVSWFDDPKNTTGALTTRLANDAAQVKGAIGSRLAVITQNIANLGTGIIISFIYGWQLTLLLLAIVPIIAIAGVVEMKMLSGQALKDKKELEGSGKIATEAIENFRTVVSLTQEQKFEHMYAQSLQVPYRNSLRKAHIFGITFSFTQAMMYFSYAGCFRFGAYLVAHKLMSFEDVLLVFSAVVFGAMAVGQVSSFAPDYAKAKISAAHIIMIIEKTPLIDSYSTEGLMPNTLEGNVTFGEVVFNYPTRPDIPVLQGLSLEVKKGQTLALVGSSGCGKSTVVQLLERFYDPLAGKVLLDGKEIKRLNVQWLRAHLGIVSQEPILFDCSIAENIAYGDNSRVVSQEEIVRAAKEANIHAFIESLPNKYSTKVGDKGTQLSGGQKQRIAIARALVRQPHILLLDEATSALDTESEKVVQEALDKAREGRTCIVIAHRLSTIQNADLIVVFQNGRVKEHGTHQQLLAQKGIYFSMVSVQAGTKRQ
Procedure for JEKO-1: (§2) After 72 hours, the cultures were pulsed with Alamar Blue overnight, and the fluorescent intensity of resulted cultures was measured by a Synergy H1 plate-reader (BioTek Inc).
Procedure for Toledo: as §2
Procedure for U2932: as §2

In the case of `N.N.[Cl][Pt][Cl]` [Cisplatin], the IC50 in [1] (read-out: IC50) is 20 µM; with H678, 3.81 µM; in the data set with PC9 it was 8.12 µM; in the data set on BMMSC BM mesenchyme, 20 µM; in the data set on HS578 breast epithelium, above 100 µM; in the data set on H1975 it was at least 10 µM. Besides, the IC50 is 47 µM with HL-1 cardiomyocyte; 22 µM in the data set on MS-5 adult BM stroma (read-out: IC50); 4.79 µM in the data set with H128; 50 µM in [2] (read-out: IC50); at least 20 µM in the data set with H82; 30 µM in [3]. For the same compound, the 50% inhibitory concentration (IC50) in the data set with H841 was at least 20 µM; in the data set with H524, 0.41 µM; in data set [4], 3.6 µM; in the data set with H358, 5.9 µM; with H3122 it was at least 30 µM; with CV1 renal fibroblasts (read-out: IC50) it was 97.9 µM. For the same compound, in the data set on H69, the IC50 was 3.42 µM.

Consider `CN(C)CCNC(=O)c1cccc(NC(=O)Nc2ccc(N(CCCl)CCCl)cc2)c1` [BO-1055, Ureidomustine], for which the IC50 in data set [1] (BMEC-hTert, 72 hr) was at least 10 µM; with SET2 it was above 10 µM; in the data set on AML cell lines (Homo sapiens, THP1 and MOLM13), 0.18 to 0.45 µM; in the data set with MS-5 adult BM stroma (MS-5 (mouse), 72 hr), at least 10 µM; in data set [2], 50 µM; in the data set with U2932, 2.22 µM. Besides, the IC50 with SMS-CTR rhabdomyosarcoma is 10 µM; with Toledo it was 8.95 µM; in the data set with CB CD34+ cells (+FCS) (Homo sapiens, CB CD34+ cells, +FCS), above 10 µM; in the data set with CB CD34+ cells (+FCS) (Homo sapiens, normal CB CD34+, FBS/FCS or serum free) it was 9.9 to 10.2 µM; in the data set with CB CD34+ cells (+FCS) (normal CB CD34+, FBS/FCS or serum free), 8.5 to 10.5 µM; in the data set on JEKO-1 it was 0.27 µM. For the same compound, the IC50 with CV1 renal fibroblasts (Chlorocebus sabaeus, Fibroblast, 72 h) is above 100 µM; with NECB1, 7.42 µM and 7.78 µM and 8.52 µM. At P-glycoprotein (P-gp), the P-gp assessment entry was “Possible P-gp liabilities”. Also, in the data set on AML cell lines (MLL-AF9 transduced vs normal CB or BM CD34+), the “increase of cytotoxicity by MLL-AF9” value is given as 25-40 fold. For the same compound, in data set [5], the “survival longer than control” value was 48 days. The intrinsic clearance entry in the data set “Microsome stability” is reported as “High intrinsic clearance”. The tissue distribution entry in data set [6] (IV 10 mg/kg) is listed as “accumulated mainly in the kidney, with only a limited amount detected in the brain”. For the same compound, the Cl in [6] (IV 10 mg/kg, n=5, 10 mg/kg) was determined as 39.2 ± 10.6 mL/min per kg. Also, in [6] (setting [7]), the AUC was 4.45 µg·h/mL. This compound also yielded a Cmax in data set [6] (setting [7]) of 13.4 ± 6.17 µg/mL. For the same compound, the clearance in data set [6] (setting [8]) amounted to 2.36 ± 0.636 L/h/kg. The same compound had a half-life in data set [6] (setting [8]) of 46.2 min. The compound further displayed a Papp B→A at 10 μM in the data set “Caco-2 permeability” of 70.5 nm/s. Besides, the “Papp (B to A)” value in the data set on Caco-2 cell monolayers (10 μM) is given as “Papp (B to A) = 7.5 × 10−6 cm/sec”. In the data set with Caco-2 cell monolayers (A→B and B→A directions), this compound yielded a mass balance below 50%. The “Papp coefficient A→B” value in the data set with Caco-2 cell monolayers (Caco-2) was “not detected”. The “cytotoxicity, dose titration (FIG. 9)” value in the data set with MA-10-W51 is on record as “highly cytotoxic”.
